# Test results: US11390580B2, “Anti-fungals targeting the synthesis of fungal shingolipids” (THE RESEARCH FOUNDATION FOR THE STATE UNIVERSITY OF NEW YORK, priority 2014, dated 2022)
# “And” between values parts separate entries of the source, which are not always exact repeats. Equal values may be shown once. “Also recorded” adds a separate entry of the source. Read-outs that look alike come from different tables or passages of the source.
# Tests used:
# [1] = tested on: Cryptococcus neoformans; experiment: In vitro susceptibility testing (MIC); format: cell-based
# [2] = tested on: Candida glabrata; experiment: In vitro susceptibility testing (MIC); format: cell-based
# [3] = tested on: Candida parapsilosis; experiment: In vitro susceptibility testing (MIC); format: cell-based; settings: for BHBM 24 Hr 50% / BHBM 48 Hr 50%: MIC, FTL strains
# [4] = tested on: Candida guilliermondii; experiment: In vitro susceptibility testing (MIC); format: cell-based
# [5] = tested on: Rhizopus oryzae; experiment: In vitro susceptibility testing (MIC); format: cell-based
# [6] = tested on: Blastomyces dermatitis; experiment: In vitro susceptibility testing (MIC); format: cell-based; settings: for BHBM 96 Hr 50%: MIC, FTL strains
# [7] = tested on: Histoplasma capsulatum; format: cell-based
# [8] = tested on: synthesis of GlcCer in C. albicans cells; experiment: GlcCer synthesis in C. albicans; format: cell-based, Candida albicans
# [9] = tested on: Candida albicans SC-5314; experiment: Animal studies for candidiasis (intravenous infection); format: in vivo, mice
# Procedure: For survival studies, 8-week old CBA/J female mice (Jackson Laboratory) were used. Eight mice per treatment or control group were used. Mice were infected by intravenous inoculation of 100 μL containing 1×10^5 cells of Candida albicans SC-5314 strain. […] Untreated mice, received 100 μL of PBS/0.4% DMSO. Mice were feed ad-libitum and monitored closely for sign of discomfort. At the end of the survival study, tissue burden culture was performed in mice that survived the infection. Mice were sacrificed and their organs were extracted and homogenized in 10 ml sterile PBS using homogenizer. Organ homogenates were diluted 10 times in PBS, and 100 μL was plated on YPD agar plates and incubated at 30° C. for 72 hours for CFU count.
# [10] = Pharmacokinetics of BHBM; format: in vivo, mice
# Procedure: The mice from each group were sacrificed and blood samples were collected at pre-dose and 0.5, 1, 2, 4, 8, 12, and 24 post-administration into K2EDTA containing tubes. The samples were centrifuged immediately and plasma was collected and stored at −80° C. until analysis. Plasma samples were extracted using methylene chloride. […] After mixing, 1 ml of methylene chloride was added and the samples were vortex mixed for 30 seconds followed by centrifugation for 5 minutes. […] The residue was reconstituted in 100 μL acetonitrile: water (50:50) solution, mixed and transferred to mass spec vials. […] The mobile phase consisted of water: acetonitrile with 0.1% formic acid (50:50) ran at a flow rate of 200 μL/min. Aliquots of 5 μL were analyzed using LTQ-FT liquid chromatography/tandem mass spectrometer (LC/MS/MS) with electrospray source in the positive ion mode (ThermoFisher Scientific, Waltham, Mass.). The retention time of BHBM was 5.7 mins. The lower limit of quantification (LLOQ) was 10 ng/ml. Systemic exposure of BHBM in mice was quantified by calculating the AUC of the drug from pre-dose to the end of the dosing interval (AUC0-t) using the linear trapezoidal rule by non-compartmental analysis employing Phoenix winNonlin 6.3 (Pharsight Corp, Mountain View, Calif.). The elimination half-life (t1/2) was calculated as 0.693/λz, where λz is the terminal elimination rate constant. Bioavailability of IP route was calculated.
# [11] = tested on: C. neoformans sphingolipids; experiment: Sphingolipid levels by TLC and lipid mass spectrometry; format: cell-based, Cryptococcus neoformans
# Procedure: Labeling fungal cells. […] Samples without drug were included as control. Before lipid extraction, lipid internal standards (C17 ceramide and C17 sphingosine) were added. Lipids were then extracted following the methods of […] and Bligh and Dyer and one fourth of the sample was aliquoted for determination of the inorganic phosphate. The remainder of the sample was subjected to base hydrolysis and then analyzed using LC/MS. Results were normalized with the inorganic phosphate levels.
# [12] = tested on: C. neoformans secreted vesicles; experiment: Vesicle secretion measured by vesicular sterols; format: cell-based, Cryptococcus neoformans
# From the text: (§1) WF, white field; NBD-Cer, NBD-ceramide.
# [13] = tested on: C. albicans secreted vesicles; experiment: Vesicle secretion measured by vesicular sterols; format: cell-based, Candida albicans
# From the text: as §1
# [14] = tested on: S. cerevisiae heterozygote library mutants
# [15] = tested on: synthesis of GlcCer in C. neoformans cells; experiment: In vivo labeling with 3H palmitate, TLC of GlcCer; settings: 3H palmitate labeling
# [16] = tested on: C. neoformans (H99); experiment: Transmission electron microscopy of treated cells; settings: 4 μg/mL, 6 hours
# [17] = tested on: C. neoformans; experiment: Synergistic assay (fractional inhibitory index, FIC)
# [18] = C3H/HeN, mouse, in vivo, ip, 0.8 mg/kg
# [19] = C3H/HeN, mouse, in vivo, ip, 1.6 mg/kg
# [20] = TLC, confirmed by mass spectrometry
smiles,measurement,setting,value
"Cc1ccccc1C(=O)NN=Cc1ccc(O)c(Br)c1 [BHBM, N′-(3-bromo-4-hydroxybenzylidene)-2-methylbenzohydrazide]",in vitro activity,[1],good in vitro activity
same,MIC range,"[1]; 4 MDP Lab strains, clinical isolates resistant to fluconazole",1 to 2 µg/mL
same,MIC range,"[1]; 8 MDP Lab strains, clinical isolates sensitive to fluconazole",0.5 to 2 µg/mL
same,MIC range,[1]; 13 Fungus Testing Lab strains,0.25 to 8 µg/mL
same,MFC,"[1]; Cryptococcus neoformans, read-out: MFC (minimum fungicidal concentration)",4 µg/mL
same,BHBM 72 Hr 50%,"[1]; MIC, FTL strains",8 and >16 and 16
same,sensitivity of Fluconazole-resistant strains,[1]; all Fluconazole-resistant C. neoformans strains,sensitive
same,MIC range,[2]; 10 Fungus Testing Lab strains,0.125 to 2 µg/mL
same,MIC,"[2]; Nakaseomyces glabratus, read-out: MIC (moderately active)",8 to 16 µg/mL
same,in vitro activity,[3],not active
same,MIC range,[3]; 3 MDP Lab strains,>32 µg/mL
same,BHBM 24 Hr 50%,[3],>16
same,BHBM 48 Hr 50%,[3],>16
same,BHBM 24 Hr 50%,[3]; first listing r7-r78,>16
same,BHBM 48 Hr 50%,[3]; first listing r7-r78,>16
same,MIC range,"[3]; QC, Fungus Testing Lab",>16 µg/mL
same,BHBM 24 Hr 50%,"[4]; MIC, FTL strains",>16
same,BHBM 48 Hr 50%,"[4]; MIC, FTL strains",>16
same,MIC,"[4]; Meyerozyma guilliermondii, read-out: MIC (moderately active)",8 to 16 µg/mL
same,in vitro activity,[5],good in vitro activity
same,MIC range,[5]; 3 Fungus Testing Lab strains,2 µg/mL
same,in vitro activity,[6],good in vitro activity
same,MIC range,[6]; 10 Fungus Testing Lab strains,0.5 to 1 µg/mL
same,BHBM 96 Hr 50%,[6],1 and 2
same,BHBM 96 Hr 50%,[6]; first listing r7-r78,1 and 0.5
same,in vitro activity,[7],good in vitro activity
same,MIC range,[7]; 10 Fungus Testing Lab strains,0.125 to 1 µg/mL
same,synthesis of GlcCer,[8],inhibited in a dose dependent manner
same,mice alive,"[9]; 1.2 mg/kg/day intraperitoneally, after 21 days of infection",62.5%
same,clearance of infection (tissue burden),"[9]; day 21, surviving treated mice",able to clear C. albicans infection
same,bioavailability,[10]; [18],93.6%
same,half-life,[10]; [18],0.79 h
same,bioavailability,[10]; [19],100.33%
same,half-life,[10]; [19],0.84 h
same,half-life,"[10]; C3H/HeN, mouse, in vivo, iv, 1.6 mg/kg",1.24 h
same,bioavailability,"[10]; C3H/HeN, mouse, plasma, 0.8 mg/kg, immunocompetent mice, IP low dose, read-out: bioavailability",93.6%
same,half-life,"[10]; C3H/HeN, mouse, plasma, intraperitoneal, 1.6 mg/kg",~1.4 h
same,systemic exposure (AUC0-t and Cmax),"[10]; IP administration, compared to normal group",higher in immunosuppressed/infected group
same,bioavailability,"[10]; immunocompetent mice, IP high dose",90.59%
same,half-life,"[10]; immunocompetent mice, IP high dose (1.6 mg/kg)",1.43 h
same,half-life,"[10]; immunocompetent mice, IP low dose (0.8 mg/kg)",1.70 h
same,half-life,"[10]; immunocompetent mice, IV high dose (1.6 mg/kg)",1.03 h
same,sphingosine-1-phosphate level,[11]; TLC,increased
same,GlcCer level,[11]; [20],decreased
same,dihydroceramide level,[11]; [20],increased
same,sphingosine level,[11]; [20],increased; also recorded: accumulation of sphingosines
same,level of IPC,[11]; data not shown,does not decrease the level of IPC
same,secreted vesicles measured by sterol content,[12],marked reductions of secreted vesicles
same,secreted vesicles measured by sterol content,[13],marked reductions of secreted vesicles
same,Fold increased sensitivity to BHBM,[14]; ACT1 heterozygote mutant,2.0 Fold
same,Fold increased sensitivity to BHBM,[14]; GLC7 heterozygote mutant,2.1 Fold
same,Fold increased sensitivity to BHBM,[14]; GOS1 heterozygote mutant,2.1 Fold
same,Fold increased sensitivity to BHBM,[14]; MTW1 heterozygote mutant,2.5 Fold
same,Fold increased sensitivity to BHBM,[14]; PEP7 heterozygote mutant,2.2 Fold
same,Fold increased sensitivity to BHBM,[14]; REG1 heterozygote mutant,2.5 Fold
same,Fold increased sensitivity to BHBM,[14]; RET2 heterozygote mutant,3.8 Fold
same,Fold increased sensitivity to BHBM,[14]; RET3 heterozygote mutant,2.0 Fold
same,times more sensitive to BHBM,[14]; Rvs167,1.7 time
same,Fold increased sensitivity to BHBM,[14]; SAP4 heterozygote mutant,2.1 Fold
same,Fold increased sensitivity to BHBM,[14]; SEC26 heterozygote mutant,2. Fold
same,Fold increased sensitivity to BHBM,[14]; SEC31 heterozygote mutant,2.1 Fold
same,Fold increased sensitivity to BHBM,[14]; SNF8 heterozygote mutant,2.1 Fold
same,Fold increased sensitivity to BHBM,[14]; SPT4 heterozygote mutant,2.3 Fold
same,Fold increased sensitivity to BHBM,[14]; UBP3 heterozygote mutant,3.0 Fold
same,Fold increased sensitivity to BHBM,[14]; VPS3 heterozygote mutant,2.0 Fold
same,Fold increased sensitivity to BHBM,[14]; YML018C heterozygote mutant,2.1 Fold
same,inhibition of the synthesis of GlcCer,[15],significantly inhibit the synthesis of GlcCer
same,number of vacuoles per μm^2 of cell surface area,[16],0.84±0.58
same,FIC index,[17]; combined with Amphotericin B,0.75
same,FIC index,[17]; combined with Fluconazole,0.38
same,interaction,[17]; combined with Tunicamycin,synergistic
same,FIC index,[17]; combined with caspofungin,1
